{
  "source": "patent US20100324049A1",
  "about": "“DIARYL KETIMINE DERIVATIVE HAVING ANTAGONISM AGAINST MELANIN-CONCENTRATING HORMONE RECEPTOR” (priority 2007, published 2010)",
  "data": [
    {"molecular_target": "T1, human MCH-1R (Homo sapiens, UniProt Q99705)", "T1 construct": "expressed in transfected cells; host or cells: CHO-K1 (American Type Culture Collection), plasmid vector pEF/myc/cyto", "T1 sequence (Q99705 whole entry)": "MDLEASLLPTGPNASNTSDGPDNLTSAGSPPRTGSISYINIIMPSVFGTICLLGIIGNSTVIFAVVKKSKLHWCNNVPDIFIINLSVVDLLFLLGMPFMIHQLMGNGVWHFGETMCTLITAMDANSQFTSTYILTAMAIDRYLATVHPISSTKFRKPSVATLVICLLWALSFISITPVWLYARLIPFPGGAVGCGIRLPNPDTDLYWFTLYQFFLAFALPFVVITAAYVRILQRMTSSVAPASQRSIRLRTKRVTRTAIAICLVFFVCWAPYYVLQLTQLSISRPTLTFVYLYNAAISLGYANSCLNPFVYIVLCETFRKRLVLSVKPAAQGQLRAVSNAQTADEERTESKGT", "test": "MCH binding inhibition test", "conditions": "inhibition of specific [125I]MCH (50 pM) binding; membrane specimen from MCH-1R-expressing CHO-K1 cells; 25° C., 1 hour", "from_the_text": "A cDNA sequence encoding human MCH-1R [FEBS Letters, Vol. 398, 253 (1996); Biochimica et Biophisica Acta, Vol. 1401, 216 (1998)] was cloned into a plasmid vector pEF/myc/cyto (manufactured by In Vitro Gene). The expression plasmid thus obtained was transfected into host cells CHO-K1 (American Type Culture Collection) by using lipofectAMINE PLUS reagent (manufactured by Life Technologies) to thereby give MCH-1R-expressing cells.\nA membrane specimen prepared from the MCH-1R-expressing cells was incubated together with a test compound and 50 pM of [^125I]MCH (manufactured by NEN) in an assay buffer (a 50 mM Tris buffer (pH7.4) containing 10 mM of magnesium chloride, 2 mM of ethylenediaminetetracetic acid, 0.01% of bacitracin and 0.2% of bovine serum albumin) at 25° C. for 1 hour, and then filtered through a glass filter GF/C (manufactured by Whatman). After washing the glass filter with a 50 mM Tris buffer (pH7.4) containing 10 mM of magnesium chloride, 2 mM of ethylenediaminetetracetic acid and 0.04% of Tween-20, the radioactivity on the glass filter was determined. Nonspecific binding was measured in the presence of 1 μM human MCH and the 50% inhibitory concentration (IC50) of the test compound to the specific binding to [^125I]MCH was determined. Table 1 indicates the results.", "units": {"IC50": "nM"}, "values": [
      {"compound": "CCO/N=C(\\c1ccc(F)c(F)c1)c1ccc(CN2CCC(c3cn(C)c4cnccc34)CC2)cn1", "note": "[Example 3-33, (E)-(3,4-Difluorophenyl)(5-{[4-(1-methyl-1H-pyrrolo[2,3-c]pyridin-3-yl)piperidin-1-yl]methyl}pyridin-2-yl)methanone O-ethyloxime]", "IC50": 0.11},
      {"compound": "CCO/N=C(\\c1ccc(F)c(F)c1)c1ccc(CN2CCC(c3ccn4ccnc4c3)CC2)cn1", "note": "[Example 3-26, (E)-(3,4-Difluorophenyl){5-[(4-imidazo[1,2-a]pyridin-7-ylpiperidin-1-yl)methyl]pyridin-2-yl)methanone O-ethyloxime]", "IC50": 0.27},
      {"compound": "Fc1ccc(C2CCN(Cc3cnc(/C(=N/OC4CC4)c4ccc(F)c(F)c4)nc3)CC2)cn1", "note": "[Example 4-1, (E)-(3,4-difluorophenyl)(5-{[4-(6-fluoropyridin-3-yl)piperidin-1-yl]methyl}pyrimidin-2-yl)methanone-O-cyclopropyloxime]", "IC50": 9.7},
      {"compound": "CC(C)(O)CO/N=C(\\c1ccc(F)c(F)c1)c1ccc(CN2CCC(c3cnn4ncccc34)CC2)cn1", "note": "[Example 3-51, (E)-(3,4-Difluorophenyl){5-[(4-pyrazolo[1,5-b]pyridazin-3-ylpiperidin-1-yl)methyl]pyridin-2-yl}methanone O-(2-hydroxy-2-methylpropyl)oxime]", "IC50": 11.2},
      {"compound": "CS(=O)(=O)CO/N=C(\\c1ccc(F)c(F)c1)c1ccc(CN2CCC(c3ccc(F)nc3)CC2)cn1", "note": "[Example 3-53, (E)-(3,4-Difluorophenyl)(5-{[4-(6-fluoropyridin-3-yl)piperidin-1-yl]methyl}pyridin-2-yl)methanone O-[(methylsulfonyl)methyl]oxime]", "IC50": 6.7}
    ]}
  ]
}
